Calls of active or inactive are those of the source. No rule for the calls is given here. Bounds are passed on as bounds.

Consider 81 compounds from PubChem BioAssay AID720512 (Broad Institute, 2013).

One assay addresses Toxin B (TcdB) glycohydrolase, Clostridioides difficile 630. Put plainly: TcdB glycohydrolase inhibitors, dose response, biochemical, cherry-pick, plate reader (AID 720512). Conditions: recombinant TcdB glycohydrolase activity.
A word on the AC50: it is the midpoint of the concentration-response curve, whichever way the signal moves. Turning to `C[N+]1(CCCCSc2ccc(O)cc2)CCCCC1`, the AC50 is > 39 µM (inactive). For the compound `Cn1c(=O)c2[nH]c(=S)n(Cc3ccccc3)c2n(C)c1=O`, the AC50 is 18.2 µM.

Take `CCCNC(=O)N1CC[C@@H]2[C@@H](CO)N(C)c3ccc(-c4ccc(F)cc4)cc3[C@@H]21`: the AC50 was > 42 µM (inactive). Same read-out and setting: as for `CC(C)NC(=O)N1CC[C@@H]2[C@@H](CO)N(C)c3ccc(-c4ccc(F)cc4)cc3[C@@H]21`, the figure is > 42 µM (inactive); as for `Oc1ccc(Cc2ccccc2Cl)c(O)c1`, > 39 µM (inactive); as for `COc1cc(/C=N/NC(=O)c2cccc([N+](=O)[O-])c2)ccc1O`, > 39 µM (inactive). Still for that read-out and setting: to `CC1CCC/C(=C\c2ccc(O)cc2)C1=O` (stereo unspecified) belongs 16.9 µM; to `Oc1ccc(/C=N/N2CCN(c3ccccn3)CC2)cc1`, > 39 µM (inactive).

The assay is the same for the next values; noted with them: recombinant TcdB glycohydrolase activity, at 10 µM (top of the series).
On to `O=C(COc1cccc(C(F)(F)F)c1)N1CCN(c2ccc(O)cc2)CC1`, for which the “activity change, negative = inhibition” value is “inactive”.

The same assay, now with this note: recombinant TcdB glycohydrolase activity, at 19.5 µM (top of the series).
For `C[C@@H]1CN([C@@H](C)CO)S(=O)(=O)c2ccc(-c3ccncc3)cc2O[C@@H]1CN(C)Cc1ccc(Oc2ccccc2)cc1`, the “activity change, negative = inhibition” value was “inactive”. Still for that read-out and setting: to `O=C(Nc1ccc(O)cc1)C1CCCN1S(=O)(=O)c1ccc(F)cc1` (stereo unspecified) belongs “inactive”; to `Oc1ccc(Cc2ccc(Cl)cc2)c(O)c1`, “inactive”. Regarding `Cc1c(O)ccc(NC(=O)/C=C/c2ccccc2)c1C`, the “activity change, negative = inhibition” value was “inactive”. Same read-out and setting: to `COc1ccc(/C=N/N=C2/NC(=O)C(CC(=O)NC(N)=O)S2)cc1` (stereo unspecified) belongs “inactive”; to `NS(=O)(=O)c1ccc(CCNC(=O)c2ccc(CS(=O)(=O)c3ccc(Br)cc3)o2)cc1`, “inactive”. Still for that read-out and setting: as for `O=C(OCC(=O)N1CCCCC1)c1ccccc1SCC(=O)N1CCCCC1`, the entry is “inactive”; as for `COc1cc(/C=N/NC(=O)CSc2ccccn2)ccc1O`, “inactive”. The same measure, in the same setting: as for `O=C(NNc1nc2c(F)cc(F)cc2s1)C1COc2ccccc2O1` (stereo unspecified), the entry is “inactive”; as for `Nc1c(Cl)ncnc1NCCc1ccc(O)cc1`, “inactive”; as for `COc1ccc(C(=O)Nc2ccccc2C(=O)O)cc1Cl`, “inactive”. `Cc1cccc(-c2n[nH]c(=S)n2/N=C/C=C/c2ccco2)c1`: the “activity change, negative = inhibition” value was “inactive”. Consider `O=C(c1ccc(N2CCOCC2)c([N+](=O)[O-])c1)N1CCN(c2ccccc2F)CC1`, for which the “activity change, negative = inhibition” value is “inactive”. On the same count and under the same terms, as for `Cc1onc(-c2c(F)cccc2Cl)c1C(=O)Nc1nnc(C(F)(F)F)s1`, the entry is “inactive”; as for `O=C(NC(=S)Nc1ccc(O)cc1)c1cncc(Br)c1`, “inactive”; as for `CC(C)CNC(=O)C(=O)NCC1CCCN1S(=O)(=O)c1cccs1` (stereo unspecified), “inactive”. The same measure, in the same setting: as for `COc1cc2[nH]c(=S)nc(NCCC(C)C)c2cc1OC`, the entry is “inactive”.

On to `COc1c2ccc(C(=O)NCCCCc3ccccc3)cc2nn1C`, for which the “activity change, negative = inhibition” value is “inactive”. Still for that read-out and setting: as for `O=c1[nH]c(/C=C\c2ccc(O)cc2)nc(O)c1[N+](=O)[O-]`, the entry is “inactive”; as for `c1ccc2[nH]c(-c3ccc4c(c3)OCO4)nc2c1`, “inactive”.

As to `O=C(C[C@@H]1CC[C@H]2[C@@H](COC[C@@H](O)CN2C(=O)c2ccccn2)O1)NC1CCC1`, the “activity change, negative = inhibition” value is “inactive”. Still for that read-out and setting: as for `COc1cc(/C=C/C(=O)c2ccc([N+](=O)[O-])o2)ccc1O`, the entry is “inactive”; as for `COc1ccc(SC[C@H](C)CN2CC[C@H](NC(=O)OCc3ccccc3)CCC2=O)cc1`, “inactive”. For the compound `Cc1onc(-c2ccccc2Cl)c1C(=O)Nc1cnn(Cc2ccccc2)c1`, the “activity change, negative = inhibition” value was “inactive”. Consider `O=C(NNc1ccc(-c2csnn2)cc1)c1ccccc1C(F)(F)F`, for which the “activity change, negative = inhibition” value was “inactive”. Same read-out and setting: as for `COc1ccccc1N1CC(O)=C(c2nc3ccccc3s2)C1=N`, the entry is “inactive”. The same measure, in the same setting: as for `CSc1nc(Cl)cc(Nc2ccc(O)cc2)n1`, the entry is “inactive”; as for `CC(=O)Nc1ccc(Oc2nc(-c3ccccn3)nc3ccccc23)cc1`, “inactive”; as for `CS(=O)(=O)Nc1cccc(C2=NN(C(=O)c3ccccc3)C(c3cccs3)C2)c1` (stereo unspecified), “inactive”. `O=C(CSc1nc2ccccc2[nH]1)NC1CCCc2ccccc21` (stereo unspecified): the “activity change, negative = inhibition” value was “inactive”.

For the compound `COc1cccc(C(=O)C2CCCN(Cc3ccc(F)cc3)C2)c1` (stereo unspecified), the “activity change, negative = inhibition” value was “inactive”. Still for that read-out and setting: to `Cc1ccc(CNCCCn2cnc(C(=O)Nc3ccc(C)c(C)c3)n2)o1` belongs “inactive”; to `COc1ccc(C(=O)N2CCOCC2)cc1S(=O)(=O)N1CCCc2ccccc21`, “inactive”.

`Cc1c(-n2c(O)c(C3=c4ccccc4=NC3=O)sc2=S)c(=O)n(-c2ccccc2)n1C`: the “activity change, negative = inhibition” value is “inactive”.

For `O=C(COC(=O)c1ccc(F)cc1F)c1ccc[nH]1`, the “activity change, negative = inhibition” value is “inactive”. On the same count and under the same terms, as for `Cc1cnc(C(=O)OCC(=O)N2C(C)CCCC2C)cn1` (stereo unspecified), the entry is “inactive”; as for `O=C(COc1ccc(/C=N/NC(=O)c2ccc(O)cc2)cc1)Nc1cccc([N+](=O)[O-])c1`, “inactive”; as for `O=C(NC(=S)NNS(=O)(=O)c1ccccc1)c1cccnc1`, “inactive”. Still for that read-out and setting: as for `O=c1[nH][nH]c(=O)c2c1[nH]c(=S)n2Cc1ccccc1`, the entry is “inactive”. Same read-out and setting: as for `O=C(O)c1cc(NS(=O)(=O)c2ccc(NC3CCCCC3)c([N+](=O)[O-])c2)cc(C(=O)O)c1`, the entry is “inactive”; as for `CC(C)CNC(=O)c1c(F)c(F)c(F)c(F)c1F`, “inactive”; as for `CN1CCN(/N=C/c2c[nH]c3ccccc23)CC1`, “inactive”. As to `CC(=O)N(c1ccccc1C)S(=O)(=O)c1ccc(Cl)cc1`, the “activity change, negative = inhibition” value was “inactive”. Same read-out and setting: to `Cc1cc2c(cc1S(=O)(=O)N(C)c1ccccc1)NC(=O)CO2` belongs “inactive”. Consider `COc1ccccc1-n1c(SCC(=O)O)nc2c(sc(=S)n2-c2ccc(C)c(C)c2)c1=O`, for which the “activity change, negative = inhibition” value is “inactive”. On the same count and under the same terms, as for `COc1cccc(C(=O)OCC(=O)Nc2cc(C)on2)c1OC`, the entry is “inactive”; as for `O=C(CCNC(=O)c1ccccc1Cl)N/N=C\c1ccc(O)cc1`, “inactive”.

With `CCOC(=O)Nc1ccc(OC(=O)Oc2ccc(NC(=O)OCC)cc2)cc1`, the “activity change, negative = inhibition” value is “inactive”. On to `CCOC(=O)c1sc(=S)[nH]c1C`, for which the “activity change, negative = inhibition” value was “inactive”. Still for that read-out and setting: to `O=C(C[C@@H]1C[C@H]2c3cc(NC(=O)Nc4ccccc4)ccc3O[C@H]2[C@H](CO)O1)NCc1ccccc1` belongs “inactive”.

Consider `Cc1cccc(/C=C/c2onc(C)c2S(=O)(=O)N2CCC(C(=O)NC(C)(C)C)CC2)c1`, for which the “activity change, negative = inhibition” value was “inactive”. For the compound `Cc1noc(C)c1NC(=O)N(C)C[C@@H]1Oc2ccc(NC(=O)C3CCCCC3)cc2C(=O)N([C@@H](C)CO)C[C@H]1C`, the “activity change, negative = inhibition” value was “inactive”. As for `COc1ccc(CC(=O)NNC(=S)NC(=O)c2cccnc2)cc1`, the “activity change, negative = inhibition” value is “inactive”.

For `Cc1cccc2sc(NNC(=O)C3COc4ccccc4O3)nc12` (stereo unspecified), the “activity change, negative = inhibition” value was “inactive”. As for `Cc1onc(-c2ccccc2)c1C(=O)N/N=C/c1cn(C)c2ccccc12`, the “activity change, negative = inhibition” value was “inactive”. The same measure, in the same setting: to `COc1ccccc1C1=NNC(=NCc2ccccc2)SC1` belongs “inactive”.

Turning to `COc1ccc(/C=C2\CCCCC2=O)cc1`, the “activity change, negative = inhibition” value is “inactive”.

For `COc1cccc(CC(=O)OCC(=O)Nc2c(C)nn(-c3ccccc3)c2C)c1`, the “activity change, negative = inhibition” value was “inactive”. The same measure, in the same setting: as for `O=C(O)c1ccccc1C(=O)c1ccc2c(c1)N(Cc1cccc(F)c1)C(=O)CO2`, the entry is “inactive”; as for `COc1ccccc1/C=C/c1onc(C)c1S(=O)(=O)N1CCC(C(=O)NC(C)C)CC1`, “inactive”. Same read-out and setting: as for `Cc1cc(C(=O)CSc2nc(N)cc(=O)[nH]2)c(C)n1CC1CCCO1` (stereo unspecified), the entry is “inactive”. The same measure, in the same setting: as for `COc1ccc(C(=O)Nc2cc(Cl)ccc2C(=O)O)cc1`, the entry is “inactive”. With `CCCCn1c(N)c(N(CCOC)C(=O)CSc2nnc(-c3ccco3)n2CC)c(=O)[nH]c1=O`, the “activity change, negative = inhibition” value is “inactive”. Still for that read-out and setting: as for `O=C1/C(=C/c2cccnc2)SC(=NCc2ccccc2)N1Cc1ccccc1`, the entry is “inactive”; as for `COc1ccc(C(CNC(=O)c2oc3ccc(OC)cc3c2C)N2CCCC2)cc1` (stereo unspecified), “inactive”; as for `COc1ccccc1OCC(=O)Nc1ccc(-c2nnc(-c3ccco3)o2)cc1`, “inactive”. Same read-out and setting: as for `COCC(=O)N1CC[C@@H]2[C@H]1c1cc(-c3ccc(F)cc3)ccc1N(C)[C@H]2CO`, the entry is “inactive”; as for `COc1ccc(C(=O)Nc2c(-c3cccs3)c(=O)c3ccccc3n2C)cc1`, “inactive”.

As for `CNC(=O)C1CCN(S(=O)(=O)c2c(C)noc2/C=C/c2ccc(OC)cc2)CC1`, the “activity change, negative = inhibition” value is “inactive”.

Consider `O=C(C[C@H]1C[C@H]2c3cc(NC(=O)c4ccc5c(c4)OCO5)ccc3O[C@H]2[C@@H](CO)O1)NCc1cccc(F)c1`, for which the “activity change, negative = inhibition” value was “inactive”. The same measure, in the same setting: to `O=C(NN=Cc1cc(Br)c(O)c(Br)c1)c1ccccc1NS(=O)(=O)c1cccs1` belongs “inactive”; to `O=C(C[C@@H]1CC[C@@H]2[C@H](COC[C@@H](O)CN2C(=O)c2ccccn2)O1)NC1CCC1`, “inactive”.
